Assay results published in ChEMBL document CHEMBL1130891, “Solid-phase synthesis of N-substituted amidinophenoxy pyridines as factor XA inhibitors” (Bioorg Med Chem Lett, 1998).

biological target: Coagulation factor X (Homo sapiens, UniProt P00742); assay: Binding affinity was evaluated against Coagulation factor X
Sequence (P00742 41-179 limits assumed): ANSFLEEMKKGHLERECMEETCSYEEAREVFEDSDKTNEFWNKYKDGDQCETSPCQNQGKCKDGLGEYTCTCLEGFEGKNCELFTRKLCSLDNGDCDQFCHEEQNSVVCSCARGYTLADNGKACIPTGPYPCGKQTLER
Sequence (P00742 235-488 limits assumed): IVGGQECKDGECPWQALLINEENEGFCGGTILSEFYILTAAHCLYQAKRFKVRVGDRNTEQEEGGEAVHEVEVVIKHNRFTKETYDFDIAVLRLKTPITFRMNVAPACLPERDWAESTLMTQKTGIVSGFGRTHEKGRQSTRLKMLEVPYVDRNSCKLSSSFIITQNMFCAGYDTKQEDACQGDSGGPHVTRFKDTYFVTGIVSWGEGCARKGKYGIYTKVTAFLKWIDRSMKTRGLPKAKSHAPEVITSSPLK

Compound	Ki
Cc1c(F)c(Oc2cccc(C(=N)N)c2)nc(N2CCN(CC(=O)N3CCOCC3)CC2)c1F	> 5 µM
Cc1c(F)c(Oc2cccc(C(=N)N)c2)nc(N2CCN(C3CCCCC3)CC2)c1F	0.495 µM
N=C(N)c1ccc(/C=C2/CCCC/C(=C/c3ccc(C(=N)N)cc3)C2=O)cc1	0.013 µM
Cc1c(F)c(Oc2cccc(C(=N)N)c2)nc(N2CCN(c3ccc4c(c3)OCO4)CC2)c1F	> 5 µM
Cc1cccc(C)c1N1CCN(c2nc(Oc3cccc(C(=N)N)c3)c(F)c(C)c2F)CC1	> 5 µM
N=C(N)c1ccccc1 [BENZAMIDINE]	0.41 µM
N=C(N)c1cccc(COc2ccccc2)c1	0.0068 µM
Cc1c(F)c(Oc2cccc(C(=N)N)c2)nc(N2CCC(C)(c3ccccc3)CC2)c1F	0.56 µM
Cc1c(F)c(Oc2cccc(C(=N)N)c2)nc(N2CCN(c3ccco3)CC2)c1F	> 5 µM

Continued, values first:

Ki	Compound
> 5 µM	CC(=N)N1CCC(Oc2nc(Oc3cccc(C(=N)N)c3)c(F)c(C)c2F)C1 (stereo not drawn)
> 5 µM	Cc1c(F)c(Oc2cccc(C(=N)N)c2)nc(OC2CCNC2)c1F (stereo not drawn)
> 5 µM	Cc1c(F)c(NCCCN2CCCC2=O)nc(Oc2cccc(C(=N)N)c2)c1F
> 5 µM	Cc1c(F)c(Oc2cccc(C(=N)N)c2)nc(N2CCC[C@H]2CO)c1F
> 5 µM	CCCOCCNc1nc(Oc2cccc(C(=N)N)c2)c(F)c(C)c1F
> 5 µM	Cc1c(F)c(Oc2cccc(C(=N)N)c2)nc(N2CCN(C)CC2)c1F
> 5 µM	CCOC(=O)C1CCCN(c2nc(Oc3cccc(C(=N)N)c3)c(F)c(C)c2F)C1 (stereo not drawn)
> 5 µM	Cc1c(F)c(NCCN(C)C)nc(Oc2cccc(C(=N)N)c2)c1F
> 5 µM	Cc1c(F)c(NC2CCCCC2)nc(Oc2cccc(C(=N)N)c2)c1F
